Experimental data from article PMC11277992, “New Zosteropenillines and Pallidopenillines from the Seagrass-Derived Fungus Penicillium yezoense KMM 4679” (Marine Drugs, 2024).
Read-outs that look alike come from different tables or passages of the source.

Experiments:
[1] = test system: CoCl2-treated HEK-293 cells; assay: Cytoprotective activity, CoCl2-mimic hypoxia, cell viability (MTT); format: cell-based, human; details: CoCl2 at 500 µM for 24 h
Experimental: The HEK-293 cells were exposed to cobalt chloride (II) at a 500 µM for 1 h and then the compounds were added. After 24 h, the viability of the cells was measured via MTT assay as described earlier.

[2] = test system: CoCl2-treated HEK-293 cells; assay: Lipid peroxidation level (MitoCLox) in CoCl2-treated cells; format: cell-based, human; details: toxic effect of CoCl2; MitoCLox fluorescence dye
Experimental: The fluorescence probe MitoCLox (Lumiprobe, Moscow, Russia) was used for the detection of the lipid peroxidation level in CoCl2-treated cells. It was added in the cells for 1 h at a concentration of 200 nM. After 1 h, the cells were washed with PBS and fluorescence was measured in ratiometric mode with λem = 520/590 nm using a PHERAStar FS plate reader (BMG Labtech, Offenburg, Germany). The data were processed with MARS Data Analysis v. 3.01R2 (BMG Labtech, Offenburg, Germany) and calculated as a 520/590 ratio.

Candida albicans KMM 455 = assay: Antimicrobial activity, microbial growth in broth (OD620); format: cell-based; details: Candida albicans, KMM455; compound at 100 µM; read-out: Inhibition of Microbial Growth, % of Control, C. albicans
Experimental: (§1) The yeast-like fungus Candida albicans KMM 455 and bacterial strains Staphylococcus aureus ATCC 21027 and Escherichia coli VKPM (B-7935) (Collection of Marine Microorganisms PIBOC FEB RAS) were cultured on solid-medium Mueller–Hinton broth with agar (16.0 g/L) in a Petri dish at 37 °C for 24 h. The assays were performed in 96-well microplates in an appropriate Mueller–Hinton broth. Each well contained 90 µL of a bacterial or yeast-like fungal suspension (10^6 CFU/mL). Then, 10 µL was added of a compound diluted at concentrations from 1.5 µM to 100.0 µM using twofold dilution (DMSO concentration < 1%). Culture plates were incubated overnight at 37 °C, and the OD620 was measured using a Multiskan FC spectrophotometer (Thermo Scientific Inc., Beverly, MA, USA). The antibiotic gentamicin and antifungal agent nitrofungin were used as positive controls at 1 mg/mL; 1% DMSO in PBS served as a negative control. Examination was performed twice and in triplicate. The results were calculated as a percentage of the control data using SigmaPlot 14.0 software.

[3] = test system: Escherichia coli VKPM (B-7935); assay: as above; format: cell-based; details: compound at 100 µM, read-out: Inhibition of Microbial Growth, % of Control, E. coli
Experimental: as §1

[4] = test system: Staphylococcus aureus ATCC 21027; assay: as above; format: cell-based; details: ATCC21027, compound at 100 µM, read-out: Inhibition of Microbial Growth, % of Control, S. aureus
Experimental: as §1

[5] = test system: normal human kidney cells; assay: Cytotoxic activity (MTT assay); format: cell-based; details: 100 µM, 24 h
Experimental: (§2) The influence of compounds 1, 2 and 4–14 on the viability of normal human kidney […] cells, as well as human prostate PC-3, cervical HeLa and breast MCF-7 cancer cells, was measured using the MTT assay after 24 h of treatment.
(§3) The human prostate cancer cells PC-3 and CRL-1435 and the human embryonic kidney cells HEK-293 and CRL-1573TM were purchased from the American Type Culture Collection (ATCC; Manassas, VA, USA). PC-3 and HEK-293 cells were cultured in DMEM medium containing 10% fetal bovine serum (Biolot, St. Petersburg, Russia) and 1% penicillin/streptomycin (Biolot, St. Petersburg, Russia) at 37 °C in a humidified atmosphere with 5% (v/v) CO2. The cells were incubated in cultural flasks until sub-confluent (~80%).
(§4) PC-3 cells (5 × 10^3 cells/well) and HEK 293 cells (8 × 10^3 cells/well) were seeded in a 96-well plate and incubated overnight. Then, compounds were added at concentrations of 1–100 μM and incubated for another 24 h. Cell viability was then determined by the MTT (3-(4,5-dimethylthiazol-2-yl)-2,5-diphenyltetrazolium bromide) method according to the manufacturer’s instructions (Sigma-Aldrich, St. Louis, MO, USA). The absorbance of the converted formazan was measured using a Multiskan FC microplate photometer (Thermo Scientific, Waltham, MA, USA) at λ = 570 nm. The results are presented as percentages of the control data.

[6] = test system: human prostate PC-3 cancer cells; assay: Cytotoxic activity (MTT assay); format: cell-based; details: for Cell Viability, % of Control, PC-3: 100 µM, 24 h, MTT; for IC50: Homo sapiens
Experimental: as §3
as §4, with “Then, compounds were added at concentrations of 1–100 μM and incubated for another 24 h.” left out

[7] = test system: cervical HeLa cancer cells; assay: Cytotoxic activity (MTT assay); format: cell-based, human; details: for Cell Viability, % of Control, HeLa: 100 µM, 24 h, MTT; for IC50: Homo sapiens, HeLa, read-out: IC50, HeLa cells
[8] = test system: breast MCF-7 cancer cells; assay: Cytotoxic activity (MTT assay); format: cell-based, human; details: for Cell Viability, % of Control, MCF-7: 100 µM, 24 h, MTT; for IC50: Homo sapiens
Experimental: as §2
as §4, with “Then, compounds were added at concentrations of 1–100 μM and incubated for another 24 h.” left out

[9] = test system: LPS-stimulated RAW264.7 murine macrophages; set-up: method as in PMID 28218691; details: cited from earlier work
PC-3 cells [10] = assay: Colony formation (clonogenic) assay; format: cell-based; details: Homo sapiens, PC-3, 240 h; 10 days; read-out: half-maximal concentration of the inhibition of PC-3 colony formation
Experimental: The influence of compounds on colony formation by PC-3 cells was tested by the clonogenic assay. The concentration of PC-3 cells was 0.33 × 10^3/mL. The cells were incubated for 10 days, and then they were fixed with methanol (25 min), staining with 0.5% solution of crystal violet (25 min) and washing with PBS. The counting of grown colonies was carried out using a BIO-PRINT-Cx4 Edge-Fixed Pad-Container (Vilber, Collegien, France) using Bio-Vision Software user and service manual-v18.01 (Vilber, Collegien, France). The results are presented as colony inhibition in comparison with the control.

HeLa cells [11] = assay: Colony formation (clonogenic) assay; format: cell-based; details: Homo sapiens, 240 h, 10 days, read-out: half-maximal concentration of the inhibition of HeLa colony formation
MCF-7 cells [12] = assay: Colony formation (clonogenic) assay; format: cell-based; details: Homo sapiens, MCF7, 240 h; 10 days; read-out: half-maximal concentration of the inhibition of MCF-7 colony formation
PC-3 cells [13] = assay: Migration (scratch) assay; format: cell-based, human; details: 24 h
Experimental: Silicone 2-well inserts (Ibidi®, Gräfelfing, Germany) were used for formation of a free cell zone in the PC-3 cells’ monolayer. After removing the insert, the gap between the cells was 500 ± 50 μm. The cells were washed twice with PBS after removing the inserts and staining with (5,6)-carboxyfluorescein succinimidyl ester (CFDA SE) (Lumiprobe, Moscow, Russia) fluorescence dye. Then, cells were treated with compound or culture medium only (vehicle control) for 24 h. Cell migration into the wound area was observed under a fluorescence microscope (MIB-2-FL; LOMO, St. Petersburg, Russia) with objective 10× magnification.

HeLa cells [14] = assay: Migration (scratch) assay; format: cell-based, human; details: 24 h
MCF-7 cells [15] = assay: Migration (scratch) assay; format: cell-based, human; details: 24 h
MCF-7 cells [16] = assay: Drug combination study with doxorubicin (MTT); format: cell-based, human; details: 24 h
HeLa cells [17] = assay: Cell viability after pretreatment with 4-OHT (estrogen receptor inhibitor); format: cell-based, human; details: 14 at 75 µM, 4-OHT at 10 µM
Experimental: (§5) To detect the possible target of 14, we used 4-hydroxytamoxifen (4-OHT) at a concentration of 10 µM as a known inhibitor of estrogen receptors (ERs), and the data are presented in Figure 14.
(§6) Figure 14 The influence of 14 (at a 75 µM) on cell viability in the presence of 4-OHT (at 10 µM). Data are presented as the mean ± SEM. * p-value ≤ 0.05 considered significant.

MCF-7 cells [18] = assay: as above; format: cell-based, human; details: 14 at 75 µM, 4-OHT at 10 µM
Experimental: as §5, §6

PC-3 cells [19] = assay: as above; format: cell-based, human; details: 14 at 75 µM, 4-OHT at 10 µM
Experimental: as §5, §6

[Cl-].[Cl-].[Co+2] [CoCl2, cobalt (II) chloride, reference compound]
decrease of the viability of HEK-293 cells [1]: 75%
lipid peroxide levels in HEK-293 cells [2]: significant increase

C[C@@]1(O)C=C[C@H]2C[C@@H](CO)CC[C@@H]2[C@H]1C(=O)CCO [Compound 12, zosteropenilline J]
inhibition of growth at 100 µM (Candida albicans KMM 455): 6.61 ± 1.12%
inhibition of growth at 100 µM [3]: 0%
inhibition of growth at 100 µM [4]: 20.3 ± 1.2%
Cell Viability, % of Control, HEK-298 [5]: 87.01 ± 2.71 % of Control
Cell Viability, % of Control, PC-3 [6]: 87.01 ± 2.71 % of Control
Cell Viability, % of Control, HeLa [7]: 66.70 ± 6.64 % of Control
Cell Viability, % of Control, MCF-7 [8]: 82.77 ± 1.36 % of Control
effect on NO levels [9]: downregulate

CC(=O)OCCC(=O)[C@@H]1[C@H]2CC[C@H](C)[C@@H](O)[C@@H]2C=C[C@@]1(C)O [Compound 14, 1-acetylpallidopenilline A]
inhibition of growth at 100 µM (Candida albicans KMM 455): 0%
inhibition of growth at 100 µM [3]: 0%
inhibition of growth at 100 µM [4]: 31.6 ± 7.8%
Cell Viability, % of Control, HEK-298 [5]: 96.92 ± 4.83 % of Control
Cell Viability, % of Control, PC-3 [6]: 45.91 ± 0.67 % of Control
IC50 ([6]; PC-3, 24 h, read-out: IC50, PC-3 cell viability): 94.2 ± 1.13 µM
IC50 ([6]; PC-3, 48 h, read-out: IC50, PC-3 cells): 63.4 µM
IC50 ([6]; PC-3, 72 h, read-out: IC50, PC-3 cells): 48.5 µM
Cell Viability, % of Control, HeLa [7]: 53.44 ± 2.14 % of Control
IC50 ([7]; 48 h): 82.7 µM
IC50 ([7]; 72 h): 73.2 µM
Cell Viability, % of Control, MCF-7 [8]: 23.71 ± 1.05 % of Control
IC50 ([8]; MCF7, 24 h, read-out: half-maximal inhibition of the viability of MCF-7 cells): 72 ± 2.48 µM
IC50 ([8]; MCF7, 48 h, read-out: IC50, MCF-7 cells): 54.7 µM
IC50 ([8]; MCF7, 72 h, read-out: IC50, MCF-7 cells): 41 µM
IC50 (PC-3 cells [10]): 2480 ± 110 nM
IC50 (HeLa cells [11]): 960 ± 20 nM
IC50 (MCF-7 cells [12]): 660 nM
migration of PC-3 cells (PC-3 cells [13]): did not affect
migration of HeLa cells (HeLa cells [14]): significantly inhibited
migration of MCF-7 cells (MCF-7 cells [15]): significantly inhibited
decrease of MCF-7 cell viability (MCF-7 cells [16]; combination of 14 with doxorubicin at 0.1 µM): 50%
toxicity to MCF-7 cells compared with doxorubicin alone (MCF-7 cells [16]; combination of 14 with doxorubicin at 1 µM): more toxic
cytotoxicity of 14 after pretreatment with 4-OHT versus 14 alone (HeLa cells [17]): No significant differences
cytotoxicity of 14 after pretreatment with 4-OHT versus 14 alone (MCF-7 cells [18]): significant decrease in the cytotoxicity
cytotoxicity of 14 after pretreatment with 4-OHT versus 14 alone (PC-3 cells [19]): No significant differences

C[C@]12C=C[C@H]3C[C@@H](CO)CC[C@@H]3[C@H]1C(=O)CCO2 [zosteropenilline B]
effect on NO levels [9]: downregulate

CC1=C[C@H](O)[C@H]2[C@H](O)[C@@H](C)CC[C@@H]2[C@H]1C(=O)CCO [zosteropenilline H]
effect on NO levels [9]: downregulate
